Four compounds from patent US11000033B2, “Ketone or oxime compound, and herbicide” (NISSAN CHEMICAL CORPORATION, priority 2014, dated 2021) can be followed below.

Molecules are shown by their SMILES.

Format in all cases: in vivo
Data set [1] deals with Echinochloa oryzacola Vasing. Description: Test Example 2: herbicidal activity, application during weed generation in submerged conditions (symbol A). Conditions: Table 23; application herbicide amount 320 g/ha; grade 0-5 by criteria of Test Example 1. A digest of the protocol: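 Each pot contained alluvial soil under 4 cm of water with seeds of all three weeds sown together. Following growth at 25° C. to 30° C. to the one- to two-leaf stage, the floodwater received diluted emulsion at a predetermined amount; visual assessment followed at 3 weeks.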

The subject of data set [2] is Echinochloa crus-galli var. crus-galli. The data set can be described thus: Test Example 3: herbicidal effect by foliage application, Wagner pot (symbol H). Conditions: application herbicide amount 320 g/ha, Table 24. A digest of the protocol: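 Seeds sown in alluvial soil kept under 0.1–0.5 cm water, greenhouse 25–30 °C; 14 d growth. Leaves treated by small sprayer with water-diluted emulsion at a predetermined rate. Effect graded by set scale, 3 weeks.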

For data set [3], the system named is Digitaria ciliaris. Description: Test Example 4: herbicidal effect by soil treatment (symbol F). Conditions: application herbicide amount 320 g/ha. A digest of the protocol: (§1)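 Seeds were sown in sterilized diluvial soil, covered with about 1.5 cm of soil, and the soil surface was sprayed with a water-diluted emulsion of the compound at a predetermined rate. Plants grew in a greenhouse at 25° C. to 30° C.; effects were scored visually 3 weeks after application.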

In the next data set the test system is Avena fatua. Description: Test Example 4: herbicidal effect by soil treatment (symbol I). Conditions: application herbicide amount 320 g/ha. A digest of the protocol: as §1
Another data set relates to Alopecurus myosuroides. Description: Test Example 4: herbicidal effect by soil treatment (symbol J). Conditions: application herbicide amount 320 g/ha. A digest of the protocol:
as §1

For data set [4], the system named is Abutilon theophrasti. The data set can be described thus: Test Example 4: herbicidal effect by soil treatment (symbol M). Conditions: application herbicide amount 320 g/ha. The procedure, abridged:
as §1

Data set [5] relates to Veronica persica. Description: Test Example 4: herbicidal effect by soil treatment (symbol R). Conditions: application herbicide amount 320 g/ha. A digest of the protocol:
as §1

Data set [6] relates to beet. Description: Test Example 4: effect on crop by soil treatment (symbol f). Conditions: application herbicide amount 320 g/ha. The procedure, abridged:
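Grown at 25° C. to 30° C. in a greenhouse, the crops came from seed sown spot-wise in sterilized diluvial soil under roughly 1.5 cm of covering soil.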

Data set [7] deals with Digitaria ciliaris. Description: Test Example 5: herbicidal effect by foliage application, plastic box (symbol F). Conditions: 320 g/ha, 3 weeks after application. The procedure, abridged: (§2)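 Sowing in sterilized diluvial soil, 14 days' greenhouse growth at 25° C. to 30° C., then uniform small-sprayer foliar application of aqueous emulsion dilution; plants scored three weeks afterwards.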

In the next data set the test system is Apera spica-venti. The data set can be described thus: Test Example 5: herbicidal effect by foliage application, plastic box (symbol L). Conditions: 320 g/ha, 3 weeks after application. The procedure, abridged:
as §2

Data set [8] concerns Abutilon theophrasti. Description: Test Example 5: herbicidal effect by foliage application, plastic box (symbol M). Conditions: 320 g/ha, 3 weeks after application. A digest of the protocol: as §2
Another data set concerns Amaranthus retroflexus. Description: Test Example 5: herbicidal effect by foliage application, plastic box (symbol N). Conditions: 320 g/ha, 3 weeks after application. A digest of the protocol: as §2
In data set [9] the test system is Veronica persica. Description: Test Example 5: herbicidal effect by foliage application, plastic box (symbol R). Conditions: 320 g/ha, 3 weeks after application. A digest of the protocol:
as §2

In a further data set the test system is soybean. Description: Test Example 5: effect on crop by foliage application, plastic box (symbol d). Conditions: 320 g/ha, 3 weeks after application. The procedure, abridged: (§3)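 A greenhouse held between 25° C. and 30° C. was used to grow plants sown spot-wise, beneath ~1.5 cm of soil, in boxes of sterilized diluvial soil.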
The next data set relates to rice plant. The data set can be described thus: Test Example 5: effect on crop by foliage application, plastic box (symbol b). Conditions: 320 g/ha, 3 weeks after application. A digest of the protocol: as §3
For data set [10], the system named is beet. Description: Test Example 5: effect on crop by foliage application, plastic box (symbol f). Conditions: 320 g/ha, 3 weeks after application. The procedure, abridged: as §3

Consider `CON=C(CC1CC(O)=C(c2c(C)cc(Br)cc2C)C1=O)C(C)C` (stereo not shown) [9-001], for which the “Herbicidal effect grade, A: Echinochloa oryzacola Vasing.” value in [1] was 4 (Herbicidal ratio of 70% or higher and lower than 90%). Besides, the “H (Echinochloa crus-galli var. crus-galli) herbicidal effect grade” value in data set [2] is on record as 5 (Herbicidal ratio of 90% or more (almost completely withered)). The “Herbicidal effect grade, F: Digitaria ciliaris” value (“Herbicidal effect grade, F” below) in the data set on Digitaria ciliaris [3] was 4 (Herbicidal ratio of 70% or higher and lower than 90%). Further, the “Herbicidal effect grade, I: Avena fatua” value in the data set with Avena fatua is recorded as 0 (Herbicidal ratio of 5% or lower (almost no effect)). Further, the “Herbicidal effect grade, J: Alopecurus myosuroides” value (“Herbicidal effect grade, J” for short) in the data set on Alopecurus myosuroides was 3 (Herbicidal ratio of 40% or higher and lower than 70%). Also, the “Herbicidal effect grade, M: Abutilon theophrasti” value (from here on “Herbicidal effect grade, M”) in the data set on Abutilon theophrasti [4] is 0 (Herbicidal ratio of 5% or lower (almost no effect)). Moreover, the “Herbicidal effect grade, R: Veronica persica” value (“Herbicidal effect grade, R” below) in the data set with Veronica persica [5] is on record as 0 (Herbicidal ratio of 5% or lower (almost no effect)). Also, in the data set on beet [6], the “Effect on crop grade, f: beet” value is 0 (Herbicidal ratio of 5% or lower (almost no effect)). The “F: Digitaria ciliaris, herbicidal effect grade” value with Digitaria ciliaris [7] was 4 (Herbicidal ratio of 70% or higher and lower than 90%). For the same compound, in the data set with Apera spica-venti, the “L: Apera spica-venti, herbicidal effect grade” value (shortened to “L: Apera spica-venti”) is 3 (Herbicidal ratio of 40% or higher and lower than 70%). Also, in the data set on Abutilon theophrasti [8], the “M: Abutilon theophrasti, herbicidal effect grade” value is on record as 0 (Herbicidal ratio of 5% or lower (almost no effect)). The “N: Amaranthus retroflexus, herbicidal effect grade” value (from here on “N: Amaranthus retroflexus”) in the data set on Amaranthus retroflexus is reported as 0 (Herbicidal ratio of 5% or lower (almost no effect)). Further, in the data set with Veronica persica [9], the “R: Veronica persica, herbicidal effect grade” value is on record as 0 (Herbicidal ratio of 5% or lower (almost no effect)). In the data set on soybean, the “d: soybean, effect on crop grade” value is recorded as 0 (Herbicidal ratio of 5% or lower (almost no effect)). The “b: directly sowed rice plant, effect on crop grade” value (from here on “b: directly sowed rice plant”) in the data set with rice plant was 3 (Herbicidal ratio of 40% or higher and lower than 70%). The “f: beet, effect on crop grade” value with beet [10] is 0 (Herbicidal ratio of 5% or lower (almost no effect)).

As for `CON=C(CC1CC(O)=C(c2c(C)cc(Br)cc2C)C1=O)C1CC1` (stereo not shown) [9-002], in data set [1], the “Herbicidal effect grade, A: Echinochloa oryzacola Vasing.” value was 5 (Herbicidal ratio of 90% or more (almost completely withered)). Further, in data set [2], the “H (Echinochloa crus-galli var. crus-galli) herbicidal effect grade” value is recorded as 5 (Herbicidal ratio of 90% or more (almost completely withered)). The “Herbicidal effect grade, F” value in the data set on Digitaria ciliaris [3] was 5 (Herbicidal ratio of 90% or more (almost completely withered)). The “Herbicidal effect grade, I: Avena fatua” value with Avena fatua was 3 (Herbicidal ratio of 40% or higher and lower than 70%). For the same compound, the “Herbicidal effect grade, J” value in the data set on Alopecurus myosuroides is recorded as 5 (Herbicidal ratio of 90% or more (almost completely withered)). Further, the “Herbicidal effect grade, M” value in the data set on Abutilon theophrasti [4] is reported as 0 (Herbicidal ratio of 5% or lower (almost no effect)). Further, the “Herbicidal effect grade, R” value in the data set on Veronica persica [5] was 0 (Herbicidal ratio of 5% or lower (almost no effect)). Besides, the “Effect on crop grade, f: beet” value in the data set with beet [6] is 0 (Herbicidal ratio of 5% or lower (almost no effect)). In addition, the “F: Digitaria ciliaris, herbicidal effect grade” value in the data set on Digitaria ciliaris [7] was 5 (Herbicidal ratio of 90% or more (almost completely withered)). Moreover, the “L: Apera spica-venti” value with Apera spica-venti is listed as 5 (Herbicidal ratio of 90% or more (almost completely withered)). For the same compound, the “M: Abutilon theophrasti, herbicidal effect grade” value in the data set with Abutilon theophrasti [8] is 4 (Herbicidal ratio of 70% or higher and lower than 90%). In the data set with Amaranthus retroflexus, the “N: Amaranthus retroflexus” value is 3 (Herbicidal ratio of 40% or higher and lower than 70%). Besides, the “R: Veronica persica, herbicidal effect grade” value with Veronica persica [9] was 1 (Herbicidal ratio of 5% or higher and lower than 20%). Moreover, the “d: soybean, effect on crop grade” value in the data set with soybean is 0 (Herbicidal ratio of 5% or lower (almost no effect)). Also, in the data set on rice plant, the “b: directly sowed rice plant” value is listed as 5 (Herbicidal ratio of 90% or more (almost completely withered)). In the data set on beet [10], the “f: beet, effect on crop grade” value is 0 (Herbicidal ratio of 5% or lower (almost no effect)).

For `CC#Cc1cc(C)c(C2=C(OC(=O)COc3ccccc3)CC(CC(=NOC)C(C)C)C2=O)c(C)c1` (stereo not shown) [9-003], in data set [1], the “Herbicidal effect grade, A: Echinochloa oryzacola Vasing.” value is recorded as 5 (Herbicidal ratio of 90% or more (almost completely withered)). For the same compound, in data set [2], the “H (Echinochloa crus-galli var. crus-galli) herbicidal effect grade” value is recorded as 5 (Herbicidal ratio of 90% or more (almost completely withered)). Besides, the “Herbicidal effect grade, F” value in the data set with Digitaria ciliaris [3] is listed as 5 (Herbicidal ratio of 90% or more (almost completely withered)). For the same compound, the “Herbicidal effect grade, I: Avena fatua” value in the data set on Avena fatua was 3 (Herbicidal ratio of 40% or higher and lower than 70%). The “Herbicidal effect grade, J” value with Alopecurus myosuroides was 5 (Herbicidal ratio of 90% or more (almost completely withered)). Besides, the “Herbicidal effect grade, M” value in the data set with Abutilon theophrasti [4] was 0 (Herbicidal ratio of 5% or lower (almost no effect)). Further, the “Herbicidal effect grade, R” value in the data set on Veronica persica [5] is 0 (Herbicidal ratio of 5% or lower (almost no effect)). For the same compound, the “Effect on crop grade, f: beet” value in the data set with beet [6] is given as 0 (Herbicidal ratio of 5% or lower (almost no effect)). Also, the “F: Digitaria ciliaris, herbicidal effect grade” value in the data set with Digitaria ciliaris [7] is listed as 5 (Herbicidal ratio of 90% or more (almost completely withered)). Besides, the “L: Apera spica-venti” value in the data set with Apera spica-venti was 5 (Herbicidal ratio of 90% or more (almost completely withered)). Moreover, in the data set on Abutilon theophrasti [8], the “M: Abutilon theophrasti, herbicidal effect grade” value was 4 (Herbicidal ratio of 70% or higher and lower than 90%). The “N: Amaranthus retroflexus” value in the data set on Amaranthus retroflexus is reported as 0 (Herbicidal ratio of 5% or lower (almost no effect)). In the data set on Veronica persica [9], the “R: Veronica persica, herbicidal effect grade” value is 4 (Herbicidal ratio of 70% or higher and lower than 90%). Besides, the “d: soybean, effect on crop grade” value in the data set with soybean is 4 (Herbicidal ratio of 70% or higher and lower than 90%). The “b: directly sowed rice plant” value in the data set with rice plant was 5 (Herbicidal ratio of 90% or more (almost completely withered)). Besides, the “f: beet, effect on crop grade” value with beet [10] is 1 (Herbicidal ratio of 5% or higher and lower than 20%).

On to `CON=C(CC1CC(O)=C(c2c(C)cc(C#C[Si](C)(C)C)cc2C)C1=O)C(C)C` (stereo not shown) [9-005], for which, in [1], the “Herbicidal effect grade, A: Echinochloa oryzacola Vasing.” value was 3 (Herbicidal ratio of 40% or higher and lower than 70%). Besides, the “H (Echinochloa crus-galli var. crus-galli) herbicidal effect grade” value in [2] is listed as 5 (Herbicidal ratio of 90% or more (almost completely withered)). In addition, the “Herbicidal effect grade, F” value in the data set with Digitaria ciliaris [3] was 1 (Herbicidal ratio of 5% or higher and lower than 20%). For the same compound, the “Herbicidal effect grade, I: Avena fatua” value with Avena fatua is reported as 0 (Herbicidal ratio of 5% or lower (almost no effect)). In addition, the “Herbicidal effect grade, J” value in the data set on Alopecurus myosuroides was 1 (Herbicidal ratio of 5% or higher and lower than 20%). Besides, the “Herbicidal effect grade, M” value in the data set on Abutilon theophrasti [4] is recorded as 0 (Herbicidal ratio of 5% or lower (almost no effect)). Besides, in the data set with Veronica persica [5], the “Herbicidal effect grade, R” value is 0 (Herbicidal ratio of 5% or lower (almost no effect)). In addition, the “Effect on crop grade, f: beet” value in the data set with beet [6] was 0 (Herbicidal ratio of 5% or lower (almost no effect)). Moreover, in the data set with Digitaria ciliaris [7], the “F: Digitaria ciliaris, herbicidal effect grade” value is 4 (Herbicidal ratio of 70% or higher and lower than 90%). For the same compound, the “L: Apera spica-venti” value in the data set on Apera spica-venti is listed as 5 (Herbicidal ratio of 90% or more (almost completely withered)). In the data set on Abutilon theophrasti [8], the “M: Abutilon theophrasti, herbicidal effect grade” value was 0 (Herbicidal ratio of 5% or lower (almost no effect)). In addition, the “N: Amaranthus retroflexus” value in the data set with Amaranthus retroflexus is on record as 0 (Herbicidal ratio of 5% or lower (almost no effect)). Also, the “R: Veronica persica, herbicidal effect grade” value in the data set with Veronica persica [9] was 0 (Herbicidal ratio of 5% or lower (almost no effect)). The “d: soybean, effect on crop grade” value in the data set on soybean is 0 (Herbicidal ratio of 5% or lower (almost no effect)). Further, the “b: directly sowed rice plant” value in the data set with rice plant is 4 (Herbicidal ratio of 70% or higher and lower than 90%). For the same compound, the “f: beet, effect on crop grade” value in the data set on beet [10] is 0 (Herbicidal ratio of 5% or lower (almost no effect)).
